“Also recorded” adds a separate entry of the source.
Assays:
[1] = system: OCI-LYI, OCI-LY7, Farage and SUDHL6 DLBCL cells; test: Combination of PU-H71 with SYK inhibitor in DLBCL cells; assay type: cell-based
[2] = system: DLBCL cell lines; details: literature; cited from earlier work
[3] = system: K562 CML cells; test: Drug combination with PU-H71 in CML cells; assay type: cell-based
Text: Since single agent therapy is not likely to be curative in cancer, it is necessary to design rational combinatorial therapy approaches. Proteomic identification of oncogenic Hsp90-scaffolded signaling networks may identify additional oncoproteins that could be further targeted using specific small molecule inhibitors.

[4] = system: DLBCL patients; details: Phase II; cited from earlier work

## COc1cc(Nc2ncc(F)c(Nc3ccc4c(n3)NC(=O)C(C)(C)O4)n2)cc(OC)c1OC [Compound R406]
[1]
  efficacy of combination with PU-H71 versus each inhibitor alone: synergizes; also recorded: more efficacious
[2]
  effect on DLBCL cell lines: blocks proliferation and induces apoptosis

## COc1ccc(S(=O)(=O)N(CCO)c2ccccc2CN(C)C/C=C/c2ccc(Cl)cc2)cc1 [KN93]
[3]
  drug interaction with Hsp90 inhibitor PU-H71: synergize

## CO[C@H]1C[C@@H]2CC[C@@H](C)[C@@](O)(O2)C(=O)C(=O)N2CCCC[C@H]2C(=O)O[C@H]([C@H](C)C[C@@H]2CC[C@@H](OCCO)[C@H](OC)C2)CC(=O)[C@H](C)/C=C(\C)[C@@H](O)[C@@H](OC)C(=O)[C@H](C)C[C@H](C)/C=C/C=C/C=C/1C [everolimus]
[4]
  ORR: 35%

— patent US20220074941A1, “HSP90 COMBINATION THERAPY” (Sloan-Kettering Institute for Cancer Research, priority 2011, published 2022)
